Reference: patent US10045939B2, “Unit doses, aerosols, kits, and methods for treating heart conditions by pulmonary administration” (InCarda Therapeutics, Inc., priority 2009, dated 2018)
Where a name gives a salt, the structure may show the parent alone. Read-outs that look alike come from different tables or passages of the source.

Columns and labels:
[1] = system: induced supraventricular tachycardia; assay: Induced supraventricular tachycardia (SVT) model in anesthetized dogs, intratracheal (IT) vs intravenous administration; assay type: in vivo, dog; conditions: for cardiovascular effect when given intratracheally (summary): intratracheal, summary of study
Experimental: A venous catheter was placed in a peripheral vessel (i.e., cephalic) for administration of anesthetic(s). For anesthesia induction, all animals were given a combination of diazepam (˜0.5 mg/kg) and ketamine (˜10 mg/kg) intravenously through this venous catheter. Anesthesia was sustained until completion of the study with an intravenous infusion of pentobarbital (5-15 mg/kg/hr). Following induction, animals were endotracheally intubated and mechanically ventilated (˜12 breaths/min with a tidal volume of 200-300 mL).
Subsequently, a cut-down on a jugular vein permitted the introduction of a pacing lead into the right atrium. Similarly, for arterial pressure monitoring, a solid-state micromanometer catheter (Millar Instruments) was advanced into the aortic root via a cut-down over an artery (e.g., femoral, carotid). Transthoracic electrodes forming ECG lead II was placed. For vehicle/test article delivery, a 4F catheter was introduced through the trachea and wedged into a small airway, and a venous catheter was placed in a peripheral vessel (i.e., cephalic).
Following instrumentation/hemodynamic stabilization (for at least 15 minutes), right atrial pacing (5-10 V, 40 Hz, 2 ms pulses) was established in order to induce supraventricular tachycardia (SVT); pacing and SVT was sustained throughout the duration of the experiments. Approximately 5 minutes after onset of SVT and while monitoring ECG/arterial pressure continuously, the animals were administered three escalating doses (one at a time) of a test article; each dose was delivered as a bolus (˜3 mL) directly into a small airway through the intratracheal catheter (IT). Following dosing, the heart-rate (HR) and arterial pressure response were monitored for 15 minutes.
Subsequently (once the response to three IT doses had been recorded), hemodynamic recovery was allowed for approximately 30 minutes, and the electrocardiographic/hemodynamic response to the highest test-article dose was re-evaluated; however, for comparison purposes, this dose was delivered intravenously (IV).
Overall, two groups/test-articles were studied, and up to two animals were assigned to each group (n=2/group): one group received esmolol HCL (0.5-1.0 mg/kg, ESM), while the other received adenosine (0.25-1.0 mg/kg, ADN); only one test article was administered to per animal.

[2] = cited from earlier work
[3] = human, in vivo
Experimental: The following solution strengths were prepared for taste evaluation: (1) diltiazem hydrochloride—50 mg/ml solution in distilled water; and (2) flecainide acetate—30 mg/ml solution in distilled water.
The Aeroneb®GO device was used because it is a simple-to-use device developed specifically for patients who require respiratory therapy in and away from the home. The device can be used by patients of all ages (infant through adult) and aerosolizes solutions intended for inhalation. Aeroneb® Go works with either an AC wall controller or a battery pack, and can be cleaned with soap and water. More details about this device can be obtained at www.aerogen.com.
Number of subjects: 2 healthy male volunteers
Water was poured into the nebulizer cup, and the nebulizer was turned on. The visible cloud of aerosol generated when the nebulizer was turned on was treated as a qualitative aerosol standard.
About 1 ml of the 30 mg/ml solution was poured into the cup of the nebulizer. The nebulizer was turned on and the resulting aerosol was similar to but not as dense as the aerosol formed with the water alone.
The nebulizer was then placed in the mouth and switched on. Deep lung inhalation was performed through the nebulizer. About 40 μl (˜1.2 mg of flecainide acetate) of the test solution was inhaled. The inhaled dose was sub-therapeutic in nature as it was much less than the regular 100 mg administered as tablets. Flecainide acetate is also available as an IV injection in Europe as 10 mg/ml strength in 15 ml ampoules.
About 1 ml of the 50 mg/ml solution was poured into the cup of the nebulizer. The nebulizer was turned on and the resulting aerosol was similar to but not as dense as the aerosol formed with the water alone.
The nebulizer was then placed in the mouth and a switched on. Deep lung inhalation was performed through the nebulizer. About 40 μl (˜2 mg of diltiazem hydrochloride) of the test solution was inhaled. The inhaled dose was sub-therapeutic in nature as it was much less than the IV injection marketed in the U.S. as 5 mg/ml in 5 ml vials.

[4] = physchem; assay type: physicochemical
Description: To evaluate the solubilities of flecainide acetate and diltiazem hydrochloride in water and to evaluate the acceptability of taste and aftertaste of these two drugs for administration as liquid aerosols.

[5] = Preformulation: properties of solutions in water (pH, isotonicity, appearance); assay type: physicochemical
Experimental: To evaluate the solubilities of flecainide acetate and diltiazem hydrochloride in water and to evaluate the acceptability of taste and aftertaste of these two drugs for administration as liquid aerosols. The following solution strengths were prepared for taste evaluation: (1) diltiazem hydrochloride—50 mg/ml solution in distilled water; and (2) flecainide acetate—30 mg/ml solution in distilled water.

[6] = system: induced atrial fibrillation; assay: Induced atrial fibrillation model in anesthetized dogs, intratracheal (IT) administration; assay type: in vivo, dog; conditions: for cardiovascular effect when given intratracheally (summary): summary of study; for conversion of atrial fibrillation to normal sinus rhythm: pulmonary (intratracheal/inhalation route)
Experimental: A venous catheter was placed in a peripheral vessel (i.e., cephalic) for administration of anesthetic. For anesthesia induction, all animals were given morphine sulfate (˜2 mg/kg) and a bolus of alpha chloralose (˜100 mg/kg) intravenously through the venous catheter. Anesthesia was sustained with alpha chloralose (35-75 mg/kg/hour IV), until completion of the study (<2 hours). Following induction, animals were endotracheally intubated and mechanically ventilated (˜12 breaths/minute with a tidal volume of 200-300 mL). Subsequently, a cut-down on a jugular vein permitted introduction of a pacing lead into the right atrium. Transthoracic electrodes forming ECG lead II were placed. For test/vehicle article delivery, a 4F catheter was introduced through the trachea and wedged into a small airway, and a venous catheter was placed in a peripheral vessel (i.e., cephalic). Following instrumentation and hemodynamic stabilization (for at least 15 minutes), phenylephrine was continuously infused (2 ug/kg/min IV) to elevate the systemic arterial pressure and increase vagal (parasympathetic) efferent activity for the duration of the study. Approximately 5 min after administration of this parasympathomimetic was started; the following experiments were performed: First, the right atrium was paced (20 V, 40 Hz, 4 ms pulse) for 15 minutes, and following pacing discontinuation, atrial fibrillation ensued. Approximately 3 minutes after pacing was stopped and atrial fibrillation was observed, the animals were given vehicle (˜3 mL) intra-tracheally (IT); the duration between dosing and, (if observed) the return to sinus rhythm and/or the ventricular rate was noted. Observations were made for up to 10 minutes. Subsequently, atrial fibrillation was re-established via 15-minute pacing cycle(s), as described above. Once pacing was discontinued and atrial fibrillation was observed/stable for 3 minutes, the animals were administered the vehicle or one of the test articles, delivered as a bolus (˜3 mL) directly into a small airway through the intratracheal catheter. Vehicle was only water. In the case of flecainide as the test article, the concentration was 15 mg of flecainide/3 ml of water. Following dosing, the duration between cessation of administration and, if observed, return to sinus rhythm and/or ventricular rate were noted; observations were made for up to 10 minutes.

[7] = pulmonary dose 0.25 mg/kg body weight
[8] = pulmonary dose between 2-4 mg/kg body weight

Compound: Nc1ncnc2c1ncn2[C@@H]1O[C@H](CO)[C@@H](O)[C@H]1O [adenosine]
- effect on the heart ([1]; administered via the lung): did not have any effect on the heart
- cardiovascular effect when given intratracheally (summary) [1]: clear response was not observed

Compound: CCCCCCCCCCCCCCCC(=O)OC[C@H](COP(=O)([O-])OCC[N+](C)(C)C)OC(=O)CCCCCCCCCCCCCCC [DPPC, dipalmitoylphosphatidylcholine]
- solubility of the phospholipid in water [2]: about 10^−10 mol/L

Compound: COc1ccc([C@@H]2Sc3ccccc3N(CCN(C)C)C(=O)[C@@H]2OC(C)=O)cc1.Cl [diltiazem, diltiazem hydrochloride]
- burning sensations in the mouth, throat, or lungs [3]: No burning sensations was felt in the mouth, throat, or lungs
- visible adverse events [3]: No visible adverse events were observed
- solubility [4]: > 90 mg/mL
- pH of solution in water ([5]; 3.5 mg/mL solution in water): 6.7
- isotonicity of solution in water (% to isotonic) ([5]; 50 mg/mL in water): about 80%
- appearance of solution ([5]; 50 mg/ml solution in distilled water): clear with no visible particulate matter
- PR interval ([1]; IV or pulmonary route (0.25 mg/kg per FIGS. 14 and 15)): prolonged the PR interval
- timing of the electrophysiological change ([1]; IV vs pulmonary): comparable between IV and pulmonary
- Mean Arterial Pressure (MAP) ([1]; dog, in vivo, iv, 0.25 mg/kg): dropped significantly in both cases
- comparison of pulmonary and IV routes ([1]; pulmonary vs IV (0.25 mg/kg per FIGS. 14 and 15)): comparable in all aspects
- mean arterial blood pressure (MAP) ([6]; dog, in vivo, 0.25 mg/kg): notable drop in mean arterial blood pressure
- heart rate ([6]; inhalation route, dose not stated): reduced heart rate
- cardiovascular effect when given intratracheally (summary) ([6]; intratracheal): clear cardiovascular effect
- conversion of atrial fibrillation to normal sinus rhythm ([6]; dose not stated, hydrochloride): rapidly converted the Atrial Fibrillation to normal sinus rhythm
- PQ interval [6, 7]: prolonged the PQ
- heart rate [6, 7]: slowed down marginally
- conversion of induced atrial fibrillation to normal sinus rhythm ([6]; pulmonary dose 0.25 mg/kg body weight, hydrochloride, 0.25 mg/kg): converted the induced atrial fibrillation to normal sinus rhythm
- conversion of induced atrial fibrillation to normal sinus rhythm ([6]; pulmonary dose 0.25 mg/kg body weight, listed as diltiazem HCl, hydrochloride, 0.25 mg/kg): Afib converting

Compound: CN(CCOc1ccc(NS(C)(=O)=O)cc1)CCc1ccc(NS(C)(=O)=O)cc1 [dofetilide]
- heart rate ([6]; escalating pulmonary doses of 10-40 mcg/kg body weight): minor reduction in heart rate
- ventricular rate ([6]; intratracheal, dose not stated): marginally slowed the ventricular rate
- cardiovascular effect when given intratracheally (summary) ([6]; intratracheal): probable effect

Compound: COC(=O)CCc1ccc(OCC(O)CNC(C)C)cc1 (stereo not drawn) [esmolol, esmolol HCL]
- period of AV block (FIGS. 17, 18) ([1]; 0.5 mg/kg administered via the lung): AV block induced
- period of AV block (FIG. 20) ([1]; 0.75 mg/kg administered via the lung): AV block induced
- drop in MAP ([1]; delivered via the lung, any of the doses): did not cause a drop in MAP
- cardiovascular effect when given intratracheally (summary) [1]: probable effect
- PR intervals in the ECG traces ([1]; via the lung (IT), elevating doses): affecting the PR intervals
- electrophysiological effects ([1]; via the lung (IT), higher dose 1.0 mg/kg): did not produce the same electrophysiological effects
- AV block ([1]; via the lung (IT), lower doses): 2nd degree AV block

Compound: O=C(NCC1CCCCN1)c1cc(OCC(F)(F)F)ccc1OCC(F)(F)F (stereo not drawn) [flecainide, flecainide acetate]
- burning sensations in the mouth, throat, or lungs [3]: No burning sensations was felt in the mouth, throat, or lungs
- visible adverse events [3]: No visible adverse events were observed
- solubility ([4]; water): ~30 mg/mL
- pH of solution in water ([5]; 2.6 mg/mL solution in water): 5.0
- isotonicity of solution in water (% to isotonic) ([5]; 30 mg/mL in water): about 50%
- appearance of solution ([5]; 30 mg/ml solution in distilled water): clear with no visible particulate matter
- conversion of Afib (ECG trace, FIG. 12) ([6]; 2 mg/kg body weight): Afib converting as soon as dosing occurred
- conversion of Afib to normal sinus rhythm (ECG trace, FIG. 11) ([6]; 4 mg/kg body weight): Afib converting into normal sinus rhythm
- cardiovascular effect when given intratracheally (summary) ([6]; intratracheal): clear cardiovascular effect
- conversion of atrial fibrillation to normal sinus rhythm ([6]; dose not stated): rapidly converted the Atrial Fibrillation to normal sinus rhythm
- adverse events such as proarrhythmia [6, 8]: Neither dogs exhibited any known adverse events such as proarrhythmia
- conversion of induced atrial fibrillation to normal sinus rhythm [6, 8]: converted the induced atrial fibrillation to normal sinus rhythm
- drop in mean arterial pressure [6, 8]: None to minimal drop in mean arterial pressure
- ventricular rate ([6]; pulmonary, large doses): slower ventricular rates
